According to ChEMBL document CHEMBL1201862, “PubChem BioAssay data set” (2004):
The source made the active and inactive calls.

Experiments:
Troponin, cardiac muscle [1] = biological target: T1, Troponin, cardiac muscle (Homo sapiens, UniProt P19429+P45379+P63316); test: Fluorescence-based biochemical high throughput dose response assay for activators of the calcium sensitivity of cardiac Regulated Thin Filaments (RTF). [Related pubchem assays (depositor defined):AID493008, AID493018, AID504382, AID504383]; type: protein-complex assay
[2] = biological target: T2, Dual specificity protein phosphatase 6 (Rattus norvegicus, UniProt Q64346); test: MKP-3 phosphatase inhibitors, primary screen, biochemical, rat enzyme, in vitro (AID 425)
T2 sequence (Q64346 whole entry): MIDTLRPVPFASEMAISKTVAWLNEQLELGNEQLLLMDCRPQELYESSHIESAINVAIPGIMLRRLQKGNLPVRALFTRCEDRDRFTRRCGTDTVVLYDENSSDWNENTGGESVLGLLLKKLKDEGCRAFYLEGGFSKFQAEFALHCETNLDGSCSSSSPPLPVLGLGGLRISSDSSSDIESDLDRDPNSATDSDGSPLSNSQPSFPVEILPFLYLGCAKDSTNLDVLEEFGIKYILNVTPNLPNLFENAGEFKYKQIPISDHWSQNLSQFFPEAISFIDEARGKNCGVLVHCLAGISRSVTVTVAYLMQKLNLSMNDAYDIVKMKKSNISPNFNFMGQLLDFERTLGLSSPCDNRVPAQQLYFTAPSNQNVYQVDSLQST

Troponin, cardiac muscle [3] = biological target: T1, Troponin, cardiac muscle; test: inhibitors of cardiac thin filament calcium sensitivity, dose response, biochemical, fluorescence, cardiac regulated thin filaments, triplicate IC50 (AID 504742); type: protein-complex assay
[4] = biological target: Small ubiquitin-related modifier 2 (Homo sapiens, UniProt P61956); test: SUMO2–SIM peptide binding inhibitors, dose response, selectivity assay for SUMO1 interaction inhibitor project, biochemical, fluorescence polarization, uHTS hits (AID 624385); type: functional; conditions: read-out: IC50_Mean
[5] = cytotoxicity in HEK-293T NF-kB-Luc cells, dose response, cytotoxicity control for B/T-cell NF-kB inhibitor project, cell-based, uHTS hits (AID 489019); type: functional;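 note: IC50 reflects cytotoxicity as loss of cell viability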
Beta-galactosidase [6] = biological target: T3, Beta-galactosidase (Escherichia coli, UniProt Q8VNN2); type: functional
Beta-galactosidase [7] = biological target: T3, Beta-galactosidase; test: PubChem AID 485352; type: functional

CCN(CC)CCN1C(=O)c2cccc3cc(N)cc(c23)C1=O
EC50 (Troponin, cardiac muscle [1]): 21.3 µM (inactive)

O=C(O)c1cccc(-n2cccc2/C=C2/NC(=O)N(c3ccc(Cl)cc3)C2=O)c1
IC50 [2]: 3.28 µM (active) | IC50 (Troponin, cardiac muscle [3]): 3.45 µM (active) | IC50 [4]: 66 µM (inactive)

C=C1C(=O)O[C@@H]2C[C@@H](C)[C@@H]3C=CC(=O)[C@@]3(C)[C@@H](OC(=O)CC(=O)O[C@H]3[C@@H]4C(=C)C(=O)O[C@@H]4C[C@@H](C)[C@@H]4C=CC(=O)[C@]43C)[C@H]12
IC50 [5]: > 80 µM (inactive) | EC50 (Beta-galactosidase [6]): > 31.5 µM (inactive) | EC50 (Beta-galactosidase [7]): > 40 µM (inactive)
